Results: patent publication US4894376A, “Methods of treating diseases characterized by hyperexcitability of neurons” (Trustees of the University of Pennsylvania, priority 1988, dated 1990)

What was measured:
T type calcium channel [1] = test: Patch clamp (voltage clamp) of T type calcium channel current in neuroblastoma cells; type: cell-based, mouse; conditions: for T type calcium channel current: 1 uM, neuroblastoma cells, FIG. 3
L type calcium channel = test: Patch clamp (voltage clamp) of L type calcium channel current in neuroblastoma cells; type: cell-based, mouse
neuroblastoma cell = test: Current clamp measurement of membrane potential of a neuroblastoma cell; type: cell-based, mouse
[2] = test system: L and T type calcium channels; conditions: cited from earlier work
frog atrial cells = conditions: cited from earlier work
T type calcium channel [3] = test: Patch clamp (voltage clamp) of T type calcium channel current in chick dorsal root ganglion neurons; type: cell-based, chick (gallus domesticus); conditions: DRG neurons; FIG. 2B
right atrium = conditions: spontaneously beating right atrium; cited from earlier work
SA node = conditions: cited from earlier work

**Q.** What does the source list for `N=C(NCc1ccccc1)NC(=O)c1nc(Cl)c(N)nc1N` [benzamil]?
**A.** T type calcium channel current (T type calcium channel [1]): reversably suppresses the bulk of the T type calcium channel current; increase of T channel activity by addition of a benzyl moiety to the guanidine portion of amiloride (T type calcium channel [1]; relative to amiloride): about fifty; L type current (L type calcium channel; 1 uM, neuroblastoma cells, FIG. 3): without suppressing the L type current; regenerative depolarization (neuroblastoma cell; 5 uM, after 1 uM TTX, current pulses of 40 picoamps, FIG. 4): further decreased the regenerative depolarization

**Q.** Which “calcium channel type blocked” value [2] does the source give for `COc1ccc([C@@H]2Sc3ccccc3N(CCN(C)C)C(=O)[C@@H]2OC(C)=O)cc1` [diltiazem] here?
**A.** The value was “block both the L and T type calcium channels”.

**Q.** For `COc1ccc(CCN(C)CCCC(C#N)(c2ccc(OC)c(OC)c2)C(C)C)cc1OC` (stereo not shown) [Verapamil, verapamil], which “calcium channel type blocked” value [2] is on record?
**A.** Its value is “block both the L and T type calcium channels”.

**Q.** For `COc1ccc(CNC(=N)NC(=O)c2nc(Cl)c(N)nc2N)cc1OC` [Dimethoxybenzamil, 3,4-dimethoxybenzamil], which “T type calcium channel current” value (T type calcium channel [1]) is on record?
**A.** The value was “similarly suppresses the T type current”.

**Q.** With `COC(=O)C1=C(C)NC(C)=C(C(=O)OC)C1c1ccccc1[N+](=O)[O-]` [Nifidepine, nifidepine] as the molecule, how does the “calcium channel type blocked” value [2] read?
**A.** The value was “blocks only the L type calcium channel”.

**Q.** With `N=C(NCc1ccc(Cl)c(Cl)c1)NC(=O)c1nc(Cl)c(N)nc1N` [3,4-dichlorobenzamil] as the molecule, how does the calcium currents (frog atrial cells) read?
**A.** Its calcium currents is “inhibited calcium currents in frog atrial cells”.

**Q.** Which “T type calcium channel current (transient current)” value (T type calcium channel [1]; N1E-115 cells, held at -90 mV, depolarization to -20 mV, FIG. 1A, 1C) does the source give for `N=C(N)NC(=O)c1nc(Cl)c(N)nc1N` [amiloride] here?
**A.** The value was “suppresses this T type channel current”.

**Q.** What about the “L type calcium channel current (slow inactivating current)” value (L type calcium channel; N1E-115 cells, held at -90 mV, depolarization to +20 mV, FIG. 1A, 1D) of the same molecule?
**A.** Its value is “does not appreciably suppress this L type channel current”.

**Q.** And the “T type calcium channel current” value (T type calcium channel [3])?
**A.** Its value is “completely suppressed the T type calcium channel current”.

**Q.** And the “neuronal excitability near threshold” value (neuroblastoma cell; 250 uM, current pulse to threshold and slightly above threshold, FIG. 5)?
**A.** Its value is “suppress neuronal excitability at membrane potential near the threshold for regenerative depolarization”.

**Q.** What about the “depolarization well above threshold” value (neuroblastoma cell; 250 uM, higher degree of stimulation, FIG. 5) of the same molecule?
**A.** The value was “does not block the depolarization at higher degree of stimulation”.

**Q.** And the frequency of contractions (right atrium)?
**A.** The frequency of contractions was “decreased the frequency of contractions of the spontaneously beating right atrium”.

**Q.** What about the chronotropic action (SA node) of the same molecule?
**A.** Its chronotropic action is “negative chronotropic action on the SA node”.
